Measured values from US20230172940A1, “METHODS OF EXTENDING LIFESPAN BY ADMINISTERING FERROPTOSIS INHIBITORS” (COLLABORATIVE MEDICINAL DEVELOPMENT, LLC, priority 2020, published 2023).
Structures can show the parent of a compound that is named as a salt.

Assays:
Format in all cases: in vivo, Caenorhabditis elegans
total glutathione = assay: Quantification of total glutathione; conditions: for glutathione depletion induced by DEM: Day 4 animals; for age-dependent decrease in glutathione: treated from L4, assayed on Day 4 of adult life
Protocol: Measurement of total glutathione was based on established protocols and is based on a kinetic spectrophotometric assay using the reaction between GSH and 5^o5′-dithio-bis (2-nitrobenzoic acid) (DTNB) measured at 412 nm (Caito and Aschner^o 2015; Rahman et al.^o 2006). All reagents were freshly prepared prior to the assay and for each estimate 50 adults were collected in 200 μL of S-basal (Brenner^o 1974) in 1.7 ml microfuge tubes. Animals were washed twice in S-basal^o pelleted via centrifugation and total volume reduced to 20 μL. A 50 μL aliquot of Extraction Buffer was added then the samples were frozen in Liquid N2 and store at −80° C. until required. Extraction buffer consisted of 6 mg/mL 5-sulfosalicylic acid dehydrate^o 0.1% v/v Triton X-100 and Complete^o EDTA-free Proteinase inhibitor cocktail (Roche) in KPE buffer (0.1 M potassium phosphate buffer and 5 mM EDTA at pH 7.5).
Samples were homogenized with a Bioruptor Next Gen (Diagenode) bath sonicator^o set on HIGH and cooled to 4° C.^o using 10 cycles of 10 seconds ON and 10 seconds OFF. Supernatant was collected following a 14K×g spin at 4° C. Assays were performed in 96 well microplates (clear polystyrene^o flat-bottomed^o Greiner bio-one)^o in a total volume of 200 μL per well. To each well was added 50 μL of lysate supernatant^o 50 μL of milli-Q H2O and then 100 μL of GA buffer (NADPH 400 μM^o glutathione reductase 1 U/mL and 0.3 mM DTNB in KPE buffer diluent). Reactions were incubated for 1-2 min at room temperature and then absorbance measured at 412 nm for 10 min with 1 min interval using a Powerwave plate spectrophotometer (BioTek). The rate of change in absorbance per minute is linearly proportional to the total concentration of GSH. Total GSH in the samples was interpolated from using linear regression from a standard curve of known GSH concentrations (0 to 1 μM) run in tandem. In parallel^o the concentration of total protein per sample was also determined by a Bicinchoninic acid (BCA) assay (Pierce) using the manufacturers protocol. Total GSH estimates were then normalized for protein load thous accounting for any size differences between populations. Within experiment results are presented as relative glutathione levels^o where results are normalized to the mean of the starting population.

[1] = tested on: Fe^2+/Fe(total) in anterior intestinal cells; assay: XANES imaging of iron speciation; conditions: for age-related increase in the Fe^2+ fraction: anterior intestinal region
Protocol: Adult C. elegans were removed from NGM, washed four times in excess ice-cold S-basal (0.1 M NaCl; 0.05 M KHPO4 at pH 6.0). Samples were transferred onto 0.5 μm-thick silicon nitride (Si3N4) window (Silson), excess buffer wicked away and then the slide was frozen in situ under a laminar stream of 100° K. dry nitrogen (N2) gas.
The beam energy was selected using a Si(311) double-crystal monochromator with a resolution of ˜0.5 eV. !XANES imaging was achieved by recording Fe XRF at 106 incident energies spanning the Fe Kedge (7112 eV). Measurement energy interval was commensurate with anticipated structure in the XANES:
As for XFM, !XANES measurements used a beam spot ^˜2×2 jim but data was recorded using continuous scanning at 0.2 mm sec^−1 (binned at 2 jim intervals). Transit time through each virtual pixel was 10 ms and the incident X-ray intensity at 7455 eV was ^˜1.67×10^10 photons s^−1. These imaging parameters gave a total dose associated with the qXANES measurement estimated at ^˜5 MGy. This value is commensurate with doses typically delivered during bulk X-ray absorption spectroscopy. qXANES Analysis
The XANES spectra from an iron foil (50.1 jig cm^−2, Micromatter Canada) was measured to monitor the energy calibration of the beamline. The maxima of the first peak in the derivative spectra of the iron foil was subsequently defined as 7112.0 eV. The energy stability of beamline has been determined at <0.25 eV over 24 hrs making energy drift over the course of a scan negligible. Consistency of the measured edge positions in conjunction with stability of beam position and flux recorded in ion chambers upstream the specimen position provide confidence that energy stability was high through the duration of the experiment. Small position drifts were aligned by cross-correlation of the calcium map which remains essentially constant throughout the energy series.
The aligned qXANES image series is stack of images, one per incident energy allowing the XANES of individual cells to be assessed. Previous work has shown that the distribution of calcium is a useful marker for the position of C. elegans intestinal cells, and we used this information to identify regions of interest in the qXANES stack corresponding to anterior intestinal cells. Anterior intestinal cells were chosen due to their consistent and robust iron content.
As all points on the specimen represent a heterogenous mixture of iron binding species the resulting XANES spectra are admixtures with contributions from all of these components. The technical particulars of the XFM beamline (being primarily designed for elemental mapping) are not optimized for high resolution spectroscopy and our XANES spectra are relatively sparse. For iron K-edge XANES the abrupt increase in absorption coefficient at the critical threshold obscures the presence of […] and 1s→4p electronic transitions. It has been shown that the relative intensity of these transitions provides the proportional contribution of Fe^2+ and Fe^3+ to the XANES and can be assessed by interrogating the first derivative of the XANES spectra.

DAF-16 = DAF-16 localization (reporter strain TJ356); conditions: for DAF-16 nuclear translocation: 250 μM SIH, 200 μM Lip-1
Protocol: Wild type (strain N2)^o the temperature sensitive-sterile strain TJ1060: spe-9(hc88); fer-15(b26) and the DAF-16 reporter strain TJ356: zls356 [Pdaf-16::daf-16a/b::gfp+rol-6(su1006)] were obtained from the Caenorhabditis Genetics Center. The wild type strain was maintained at 20° C. on standard nematode growth media (NGM) and aged at 20° C. or 25° C. as required. TJ1060 was maintained at 16° C. and also aged at 20° C. or 25° C. as required. TJ1060 was predominately used to remove the inconvenience of progeny production and can be regarded as a proxy for wild type.
We considered whether the higher levels of glutathione in animals treated with SIH ( ) could reflect a hormetic response to sublethal oxidative stress, which has been described for SIH at low concentrations (10 μM) combining with the cellular labile iron pool within hepatocellular carcinoma cells in culture. […] To further discount possible off-target stress responses elicited by our interventions, we interrogated DAF-16 localization. Nuclear localization of the DAF-16 transcription factor is known to be an indicator of […], which occurs under stress conditions. […] Taken together, these findings argue against hormesis mediating the benefits of SIH or Lip-1 under these conditions in C. elegans.

[2] = TJ1060, Day 8, anterior intestinal cells
[3] = aged animals under intervention

Structure (SMILES)	glutathione depletion induced by DEM (total glutathione)	age-dependent decrease in glutathione (total glutathione)	Mean Fe^2+/Fe(total) [1, 2]	Fe^2+ fraction of the total iron [1, 3]	age-related increase in the Fe^2+ fraction [1]	DAF-16 nuclear translocation (DAF-16)	depletion of glutathione (total glutathione; 10 mM DEM, 24-hour exposure, 4-day old adult worms)	Fe^2+ fraction of the total iron ([1]; 4 day old wild type worms, lethal glutathione depletion by DEM)	Mean Fe^2+/Fe(total) ([1]; N2, Day 4 + DEM)	Fe^2+/Fe(total) ([1]; wild type (N2) animals treated with DEM)	DAF-16 nuclear localization (DAF-16; 10 mM DEM, positive control)
Clc1cccc(CNC2=Nc3ccccc3NC23CCNCC3)c1 [Lip-1, N-[(3-chlorophenyl)methyl]-spiro[piperidine-4,2′(1′H)-quinoxalin]-3′-amine]	did not prevent the fall in glutathione	did not prevent the fall in glutathione	0.231	≈ 0.2	normalized to that of a young animal	Neither 250 μM SIH nor 200 μM Lip-1 induced DAF-16 nuclear translocation	–	–	–	–	–
CCOC(=O)/C=C\C(=O)OCC [DEM, Diethyl maleate]	–	–	–	–	–	–	≈ 50%	about 0.3	0.310	markedly increased	did induce nuclear localization of DAF-16
O=C(N/N=C/c1ccccc1O)c1ccncc1 [SIH, Salicylaldehyde isonicotinoyl hydrazone]	mitigated the glutathione depletion induced by DEM	prevented the age-dependent decrease in glutathione	0.236	≈ 0.2	normalized to that of a young animal	Neither 250 μM SIH nor 200 μM Lip-1 induced DAF-16 nuclear translocation	–	–	–	–	–
